According to US8653263B2 (Janssen Pharmaceutica, priority 2009, dated 2014):

What follows are compounds tested against human orexin-2 receptor (Homo sapiens (Human), UniProt O43614) (assay: Human orexin 2 receptor radioligand binding ([3H]-EMPA competition)). Settings: HEK293 cells stably expressing human orexin-2 receptor; [3H]-EMPA 5 nM final; apparent Ki=IC50/(1+C/Kd), Kd=2 nM; read-out: OR 2 Ki.
human orexin-2 receptor, sequence (O43614 whole entry): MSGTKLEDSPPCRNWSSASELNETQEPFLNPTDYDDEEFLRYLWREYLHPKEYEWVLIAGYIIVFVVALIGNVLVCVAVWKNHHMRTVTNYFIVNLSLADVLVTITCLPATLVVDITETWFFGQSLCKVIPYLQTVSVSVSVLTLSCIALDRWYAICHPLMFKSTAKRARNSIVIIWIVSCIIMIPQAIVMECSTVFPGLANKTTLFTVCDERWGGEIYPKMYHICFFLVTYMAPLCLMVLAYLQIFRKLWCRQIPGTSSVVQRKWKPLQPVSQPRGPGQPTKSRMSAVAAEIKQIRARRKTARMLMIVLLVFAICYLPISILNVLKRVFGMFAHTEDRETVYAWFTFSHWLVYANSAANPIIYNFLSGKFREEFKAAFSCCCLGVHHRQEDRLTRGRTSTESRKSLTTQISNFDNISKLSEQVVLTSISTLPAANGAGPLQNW

| Structure (SMILES) | Ki [nM] |
| --- | --- |
| Cc1ccnc(N2CC3CN(C(=O)c4ccccc4-c4cccc(F)c4)CC3C2)n1 (stereo not shown) [Example 48, 2-[(3′-Fluorobiphenyl-2-yl)carbonyl]-5-(4-methylpyrimidin-2-yl)octahydro-pyrrolo[3,4-c]pyrrole] | 716 |
| Cc1ccnc(N2CC3CN(C(=O)c4c(C)ccc5ccccc45)CC3C2)n1 (stereo not shown) [Example 50, 2-[(2-Methylnaphthalen-1-yl)carbonyl]-5-(4-methylpyrimidin-2-yl)octahydro-pyrrolo[3,4-c]pyrrole] | 215 |
| COc1ccnc(N2CC3CN(C(=O)c4ccccc4-c4cccc(F)c4)CC3C2)n1 (stereo not shown) [Example 51, 2-[(3′-Fluorobiphenyl-2-yl)carbonyl]-5-(4-methoxypyrimidin-2-yl)octahydro-pyrrolo[3,4-c]pyrrole] | 644 |
| COc1ccnc(N2CC3CN(C(=O)c4ccccc4-c4ccc(C)cc4)CC3C2)n1 (stereo not shown) [Example 54, 2-(4-Methoxypyrimidin-2-yl)-5-[(4′-methylbiphenyl-2-yl)carbonyl]octahydro-pyrrolo[3,4-c]pyrrole] | 769 |
| COc1ccnc(N2CC3CN(C(=O)c4ccccc4-c4cccc(Cl)c4)CC3C2)n1 (stereo not shown) [Example 55, 2-[(3′-Chlorobiphenyl-2-yl)carbonyl]-5-(4-methoxypyrimidin-2-yl)octahydro-pyrrolo[3,4-c]pyrrole] | 744 |
| CCOc1ccc2ccccc2c1C(=O)N1CC2CN(c3nccc(OC)n3)CC2C1 (stereo not shown) [Example 56, 2-[(2-Ethoxynaphthalen-1-yl)carbonyl]-5-(4-methoxypyrimidin-2-yl)octahydropyrrolo[3,4-c]pyrrole] | 80 |
| COc1ccnc(N2CC3CN(C(=O)c4ccc(F)c5ccccc45)CC3C2)n1 (stereo not shown) [Example 57, 2-[(4-Fluoronaphthalen-1-yl)carbonyl]-5-(4-methoxypyrimidin-2-yl)octahydro-pyrrolo[3,4-c]pyrrole] | 167 |
| CCOc1ccccc1C(=O)N1CC2CN(c3nccc(OC)n3)CC2C1 (stereo not shown) [Example 59, 2-[(2-Ethoxyphenyl)carbonyl]-5-(4-methoxypyrimidin-2-yl)octahydropyrrolo[3,4-c]pyrrole] | 778 |
| O=C(c1ccccc1-c1cccs1)N1CC2CN(c3nccc(-c4cn[nH]c4)n3)CC2C1 (stereo not shown) [Example 62, 2-[4-(1H-Pyrazol-4-yl)pyrimidin-2-yl]-5-[(2-thiophen-2-ylphenyl)carbonyl]octahydro-pyrrolo[3,4-c]pyrrole] | 42 |
| Cc1nc2ccccc2nc1N1CC2CN(C(=O)c3ccccc3-c3cccs3)CC2C1 (stereo not shown) [Example 65, 2-Methyl-3-{5-[(2-thiophen-2-ylphenyl)carbonyl]hexahydropyrrolo[3,4-c]pyrrol-2(1H)-yl}quinoxaline] | 228 |
| COc1cc(OC)nc(N2CC3CN(C(=O)c4cc(F)ccc4-n4nccn4)CC3C2)n1 (stereo not shown) [Example 72, 2-(4,6-Dimethoxypyrimidin-2-yl)-5-{[5-fluoro-2-(2H-1,2,3-triazol-2-yl)phenyl]carbonyl}octahydropyrrolo[3,4-c]pyrrole] | 318 |
| Cc1cc(C)nc(N2CC3CN(C(=O)c4c(F)cccc4-c4ncccn4)CC3C2)n1 (stereo not shown) [Example 73, 2-(4,6-Dimethylpyrimidin-2-yl)-5-[(2-fluoro-6-pyrimidin-2-ylphenyl)carbonyl]octahydropyrrolo[3,4-c]pyrrole] | 7 |
| CCc1ccccc1C(=O)N1CC2CN(c3nc(C)cc(C)n3)CC2C1 (stereo not shown) [Example 76, 2-(4,6-Dimethylpyrimidin-2-yl)-5-[(2-ethylphenyl)carbonyl]octahydropyrrolo[3,4-c]pyrrole] | 237 |
| Cc1cc(C)nc(N2CC3CN(C(=O)c4cnoc4-c4ccccc4)CC3C2)n1 (stereo not shown) [Example 80, 2-(4,6-Dimethylpyrimidin-2-yl)-5-[(5-phenylisoxazol-4-yl)carbonyl]octahydro-pyrrolo[3,4-c]pyrrole] | 314 |
| O=C(c1ccccc1-c1nnc[nH]1)N1CC2CN(c3cnc4ccccc4n3)CC2C1 (stereo not shown) [Example 85, 2-[5-{[2-(4H-1,2,4-Triazol-3-yl)phenyl]carbonyl}hexahydropyrrolo[3,4-c]pyrrol-2(1H)-yl]quinoxaline] | 98 |

Now from value to compound:

| Ki [nM] | Structure (SMILES) |
| --- | --- |
| 38 | Cc1cc(C)nc(N2CC3CN(C(=O)c4c(C)ccc5ccccc45)CC3C2)n1 (stereo not shown) [Example 47, 2-(4,6-Dimethylpyrimidin-2-yl)-5-[(2-methylnaphthalen-1-yl)carbonyl]octahydro-pyrrolo[3,4-c]pyrrole] |
| 78 | COc1ccnc(N2CC3CN(C(=O)c4c(C)ccc5ccccc45)CC3C2)n1 (stereo not shown) [Example 49, 2-(4-Methoxypyrimidin-2-yl)-5-[(2-methylnaphthalen-1-yl)carbonyl]octahydro-pyrrolo[3,4-c]pyrrole] |
| 65 | Cc1cc(C)nc(N2CC3CN(C(=O)c4ccccc4-c4cccc(F)c4)CC3C2)n1 (stereo not shown) [Example 52, 2-(4,6-Dimethylpyrimidin-2-yl)-5-[(3′-fluorobiphenyl-2-yl)carbonyl]octahydro-pyrrolo[3,4-c]pyrrole] |
| 5000 | Cc1cc(C)nc(N2CC3CN(C(=O)c4ccccc4F)CC3C2)n1 (stereo not shown) [Example 53, [5-(4,6-Dimethyl-pyrimidin-2-yl)-hexahydro-pyrrolo[3,4-c]pyrrol-2-yl]-(2-fluoro-phenyl)-methanone] |
| 227 | COc1ccnc(N2CC3CN(C(=O)c4cccc5ccccc45)CC3C2)n1 (stereo not shown) [Example 58, 2-(4-Methoxypyrimidin-2-yl)-5-(naphthalen-1-ylcarbonyl)octahydropyrrolo[3,4-c]pyrrole] |
| 173 | COc1ccnc(N2CC3CN(C(=O)c4c(OC)ccc5ccccc45)CC3C2)n1 (stereo not shown) [Example 60, 2-[(2-Methoxynaphthalen-1-yl)carbonyl]-5-(4-methoxypyrimidin-2-yl)octahydropyrrolo[3,4-c]pyrrole] |
| 224 | O=C(c1ccccc1-c1ccccc1)N1CC2CN(c3nccc(-c4cn[nH]c4)n3)CC2C1 (stereo not shown) [Example 61, 2-(Biphenyl-2-ylcarbonyl)-5-[4-(1H-pyrazol-4-yl)pyrimidin-2-yl]octahydro-pyrrolo[3,4-c]pyrrole] |
| 44 | Cc1cnc(C)c(N2CC3CN(C(=O)c4ccccc4-c4cccs4)CC3C2)n1 (stereo not shown) [Example 63, 2-(3,6-Dimethylpyrazin-2-yl)-5-[(2-thiophen-2-ylphenyl)carbonyl]octahydro-pyrrolo[3,4-c]pyrrole] |
| 579 | Cc1cnc(N2CC3CN(C(=O)c4ccccc4-c4ccccc4)CC3C2)c(C)n1 (stereo not shown) [Example 64, 2-(Biphenyl-2-ylcarbonyl)-5-(3,5-dimethylpyrazin-2-yl)octahydropyrrolo[3,4-c]pyrrole] |
| 449 | Cc1nc2ccccc2nc1N1CC2CN(C(=O)c3ccccc3-c3ccccc3)CC2C1 (stereo not shown) [Example 66, 2-[5-(Biphenyl-2-ylcarbonyl)hexahydropyrrolo[3,4-c]pyrrol-2(1H)-yl]-3-methylquinoxaline] |
| 119 | Cc1cc(C)nc(N2CC3CN(C(=O)c4ccccc4-n4cccn4)CC3C2)n1 (stereo not shown) [Example 67, 2-(4,6-Dimethylpyrimidin-2-yl)-5-{[2-(1H-pyrazol-1-yl)phenyl]carbonyl}octahydro-pyrrolo[3,4-c]pyrrole] |
| 13 | COc1cc(OC)nc(N2CC3CN(C(=O)c4c(F)cccc4-c4ncccn4)CC3C2)n1 (stereo not shown) [Example 68, 2-(4,6-Dimethoxypyrimidin-2-yl)-5-[(2-fluoro-6-pyrimidin-2-ylphenyl)carbonyl]octahydropyrrolo[3,4-c]pyrrole] |
| 17 | Cc1cc(C)nc(N2CC3CN(C(=O)c4ccccc4-c4ccccn4)CC3C2)n1 (stereo not shown) [Example 69, 2-(4,6-Dimethylpyrimidin-2-yl)-5-[(2-pyridin-2-ylphenyl)carbonyl]octahydro-pyrrolo[3,4-c]pyrrole] |
| 52 | COc1cc(OC)nc(N2CC3CN(C(=O)c4ccccc4-c4ccccn4)CC3C2)n1 (stereo not shown) [Example 70, 2-(4,6-Dimethoxypyrimidin-2-yl)-5-[(2-pyridin-2-ylphenyl)carbonyl]octahydro-pyrrolo[3,4-c]pyrrole] |
| 1000 | COc1cc(OC)nc(N2CC3CN(C(=O)c4cc(F)ccc4-c4ncccn4)CC3C2)n1 (stereo not shown) [Example 71, 2-(4,6-Dimethoxypyrimidin-2-yl)-5-[(5-fluoro-2-pyrimidin-2-ylphenyl)carbonyl]octahydropyrrolo[3,4-c]pyrrole] |
| 14 | Cc1cc(C)nc(N2CC3CN(C(=O)c4cc(F)ccc4-c4ncccn4)CC3C2)n1 (stereo not shown) [Example 74, 2-(4,6-Dimethylpyrimidin-2-yl)-5-[(5-fluoro-2-pyrimidin-2-ylphenyl)carbonyl]octahydropyrrolo[3,4-c]pyrrole] |
| 25 | CCOc1ccc2ccccc2c1C(=O)N1CC2CN(c3nc(C)cc(C)n3)CC2C1 (stereo not shown) [Example 77, 2-(4,6-Dimethylpyrimidin-2-yl)-5-[(2-ethoxynaphthalen-1-yl)carbonyl]octahydro-pyrrolo[3,4-c]pyrrole] |
| 550 | COc1cc(OC)nc(N2CC3CN(C(=O)c4ccccc4-n4cccn4)CC3C2)n1 (stereo not shown) [Example 78, 2-(4,6-Dimethoxypyrimidin-2-yl)-5-{[2-(1H-pyrazol-1-yl)phenyl]carbonyl}octahydro-pyrrolo[3,4-c]pyrrole] |
| 480 | Cc1cc(C)nc(N2CC3CN(C(=O)c4ncoc4-c4ccccc4)CC3C2)n1 (stereo not shown) [Example 79, 2-(4,6-Dimethylpyrimidin-2-yl)-5-[(5-phenyl-1,3-oxazol-4-yl)carbonyl]octahydro-pyrrolo[3,4-c]pyrrole] |
| 1220 | Cc1cc(N2CC3CN(C(=O)c4ccccc4-n4nccn4)CC3C2)nc(C(C)C)n1 (stereo not shown) [Example 81, [5-(2-Isopropyl-6-methyl-pyrimidin-4-yl)-hexahydro-pyrrolo[3,4-c]pyrrol-2-yl]-(2-[1,2,3]triazol-2-yl-phenyl)-methanone] |
| 379 | Cc1cc(C)nc(N2CC3CN(C(=O)c4ccccc4Br)CC3C2)n1 (stereo not shown) [Example 82, 2-[(2-Bromophenyl)carbonyl]-5-(4,6-dimethylpyrimidin-2-yl)octahydropyrrolo[3,4-c]pyrrole] |
| 53 | COc1cc(OC)nc(N2CC3CN(C(=O)c4ccccc4-n4nccn4)CC3C2)n1 (stereo not shown) [Example 84, 2-(4,6-Dimethoxypyrimidin-2-yl)-5-{[2-(2H-1,2,3-triazol-2-yl)phenyl]carbonyl}octahydropyrrolo[3,4-c]pyrrole] |
